According to patent US20220347167A1, “A NEW TREATMENT FOR MEIBOMIAN GLAND DYSFUNCTION” (The Schepens Eye Research Institute, Inc., priority 2019, published 2022):

Key:
IHMGECs = assay: HPTLC analysis of nonpolar lipids and phospholipids in IHMGEC lipid extracts; assay type: cell-based, human; conditions: Roxa, 4 days
Method: Authenticated IHMGECs were grown and passaged in keratinocyte serum-free medium (KSFM) with 5 ng/mL epidermal growth factor (EGF) and 50 μg/mL bovine pituitary extract (BPE) (Thermo Fisher Scientific, Waltham, Mass.) under 21% O2 (normoxia) [Liu et al. (2010) Investigative ophthalmology & visual science 51:3993-4005; McDermott et al. (2018) Current eye research 43:1097-1101; Liu et al. (2013) Investigative ophthalmology & visual science 54:2541-2550]. Upon reaching 60% to 70% confluence, culture media were replaced by a 1:1 mixture of Dulbecco's modified Eagle's medium and Ham's F12 (DMEM/F12, Corning Life Sciences, Tewksbury, Mass.), supplemented with 10% fetal bovine serum (FBS, Atlanta Biologicals, Flowery Branch, Ga.) [Sullivan et al. (2014) Investigative ophthalmology & visual science 55:3866-3877; Liu et al. (2014) JAMA ophthalmology 132:226-228]. Cells were cultured for 4-10 days under 21% O2 (normoxic) or 1% O2 (hypoxic) conditions. Culture plates of cells in the hypoxic condition were incubated inside hypoxia chambers filled with a premade 1% O2, 5% CO2 and 94% N2 gas mixture (Linde Gas North America, Hammond, Ind.), according to published protocols in Liu et al. (2019) The ocular surface 17(2):310-317 and Wright and Shay (2006) Nat Protoc 1:2088-2090. Following cell medium changes, the chambers were re-flushed with the gas mixture before returning to the incubator. Cells were cultured in the presence or absence of 50 μM Roxa (Selleck Chemical, Houston, Tex.) under normoxic or hypoxic conditions for 4 to 10 days. Cell culture experiments (n=3 wells/treatment) were repeated at least 3 times.
Cells seeded in 10-cm polystyrene-coated dishes (Corning, Falcon) were extracted with chloroform and methanol, and the lipid extractions were separated by high-performance thin-layer chromatography (HPTLC), as previously described in Liu et al. Toxicology 2014; 320:1-5, Liu and Ding (2014) Investigative ophthalmology & visual science 55:5596-5601, and Liu et al. (2015) Cornea 34:342-346. In brief, for nonpolar lipid analysis, the plate (Silica Gel 60, Merck, Darmstadt, Germany) was developed in hexane: diethyl ether: acetic acid (80:20:1.5, vol/vol/vol) alone. For phospholipids analysis, the plate was developed sequentially in chloroform:ethanol:water (60:30:5 vol/vol/vol) and then hexane:diethyl ether:acetic acid (80:20:1.5, vol/vol/vol) [Liu and Ding (2014) Investigative ophthalmology & visual science 55:5596-5601]. Bands were visualized according to published protocols [Ponec et al. (1988) Journal of lipid research 29:949-961], and the intensities of bands were quantified using ImageJ [Liu and Ding (2014) Investigative ophthalmology & visual science 55:5596-5601].
To examine whether 1% O2 exposure and/or Roxa administration stimulate the accumulation of neutral lipids within IHMGECs [Liu et al. (2019) Ocul Surf 17:310-317], IHMGECs were treated with Roxa ([…]) in either normoxic (21% O2) or hypoxic (1% O2) environments conditions for 4 days.

DNase II = DNase II activity by single radial enzyme diffusion assay (SREDA) in IHMGECs; assay type: cell-based, human
Method: After being treated with 21% O2, 1% O2, 10 μM Roxa or a combination for 10 days, cell numbers were counted with a hemocytometer and the cell lysates and cell culture supernatants were collected, as previously described in Liu et al. (2019) The ocular surface 17(2):310-317. DNase II activity in fresh samples was analyzed by SREDA in agarose gels according to published protocols in Liu et al. (2019) The ocular surface 17(2):310-317 and Oka et al. (2012) Nature 485:251-255. Cell lysates and culture media were used to measure the DNase II activity inside and outside of the cells, respectively [Liu et al. (2019) The ocular surface 17(2):310-317]. After incubation for 3-24 hours at 37° C., the area of the dark circle in the gel was measured under an UV trans-illuminator at 312 nm. For comparison between conditions, values were normalized to cell number.
Low O2 increases DNase II activity and promotes cell terminal differentiation of IHMGECs (Liu et al. Ocul Surf 2019; 17:310-317). To determine whether Roxa treatment can reproduce this hypoxic effect, IHMGECs were treated with Roxa in both normoxic and 1% O2 conditions for 10 days, prior to counting cell numbers and analyzing DNase II activity in cell lysates and supernatants.

HMGECs = assay: Effect of low oxygen mimetic drugs on HMGEC function / lipid induction; assay type: cell-based, human
MG cells = assay: Staining of dissected mouse eyelids for MG cell differentiation markers; assay type: in vivo; conditions: eyelids of Roxa-treated ApoE −/− mice
Excerpt: The mice eyelids were collected and dissected after sacrificing. The dissected samples were stained with different antibodies and dyes for lipids. For example, the dissected mice lid samples were stained with Oil Red O and LipidTox™ (Invitrogen) for evaluation of lipid accumulation. The sections were stained for pimonidazole, DNase II, HIF1α, PPARγ, Desmoglein and Desmocollin for the evaluation of cell differentiation and maturation. […] These markers include intracellular lipid accumulation, as well as expression of peroxisome proliferator-activated receptor gamma (PPAR-γ), Desmoglein and Desmocollin in MG cells.

[1] = under either normoxic or hypoxic conditions, vs controls
[2] = Roxa alone, 21% O2, 10 days, normalized to cell number

Structure (SMILES): Cc1nc(C(=O)NCC(=O)O)c(O)c2ccc(Oc3ccccc3)cc12 [Roxa, roxadustat]
- amount of cholesterol esters in IHMGECs (IHMGECs): Neither Roxa nor 1% O2 had any effect
- amount of lysophosphatidylcholines in IHMGECs (IHMGECs): Neither Roxa nor 1% O2 had any effect
- amount of phosphatidic acid in IHMGECs (IHMGECs): Neither Roxa nor 1% O2 had any effect
- amount of phosphatidylcholine in IHMGECs (IHMGECs): Neither Roxa nor 1% O2 had any effect
- amount of phosphatidylethanolamine in IHMGECs (IHMGECs): Neither Roxa nor 1% O2 had any effect
- amount of phosphatidylinositol in IHMGECs (IHMGECs): Neither Roxa nor 1% O2 had any effect
- amount of wax esters in IHMGECs (IHMGECs): Neither Roxa nor 1% O2 had any effect
- expression of unidentified polar lipids in IHMGECs (HPTLC) (IHMGECs): appeared to enhance
- levels of free fatty acids (FFAs) in IHMGECs (HPTLC) (IHMGECs; [1]): increased
- levels of triglycerides in IHMGECs (HPTLC) (IHMGECs; [1]): increased
- DNase II activity in IHMGEC culture supernatants (DNase II; [2]): significantly increased
- DNase II activity in IHMGEC lysates (DNase II; [2]): significantly increased
- magnitude of DNase II activity increase, Roxa and low O2 combination (DNase II; Roxa in 1% O2, 10 days, lysates and supernatants, vs 1% O2 alone and Roxa alone): greatest
- lipid-inducing effect in HMGECs compared with other low oxygen mimetic drugs (HMGECs): stronger lipid-inducing effect
- expression of Desmocollin in MG cells (MG cells): promoted expression
- expression of Desmoglein in MG cells (MG cells): promoted expression
- expression of peroxisome proliferator-activated receptor gamma (PPAR-γ) in MG cells (MG cells): promoted expression
- intracellular lipid accumulation in MG cells (differentiation marker) (MG cells): promoted expression
